# In patent US20260023068A1, “USE OF A FBXO42 SPECIFIC INHIBITOR IN TREATING NOTCH SIGNALING-DEPENDENT DISEASE” (WESTLAKE UNIVERSITY, priority 2022, published 2026):
# What was measured:
# [1] = test system: Notch target genes HES1, HES5 and c-MYC; assay: qPCR of Notch target genes in HEK293T cells; type: cell-based, human; conditions: mRNA, qPCR (FIG. 4O)
# [2] = test system: Notch target genes in JURKAT and HSB2 cells; assay: qPCR of Notch target genes in leukemia cells; type: cell-based, human; conditions: JURKAT and HSB2, qPCR (FIGS. 12M and 12N)
# Method: FBXO42-KO cells were rescued with WT FBXO42 or F-box deletion mutant and were used in the following studies. (A-C) The mRNA levels of Notch target genes in the treated HEK293T (A), JURKAT (B) and HSB2 (C) cells were determined by qPCR. (D-G) The invasion abilities of the treated JURKAT (D) and HSB2 (F) cells were evaluated using a 3D culture system with Matrigel. Scale bars, 50 μm. The respective average diameter of the spheres in D and F was summarized, respectively (E and G). (H-K) Anchorage-independent growth of the rescued JURKAT (H) and HSB2 (J) cells was measured using a soft agar colony formation assay. The number of colonies in H and J was counted and summarized, respectively (I and K). (L) JURKAT and HSB2 cells were treated with MLN4924 in a concentration-gradient manner for 36 h and then evaluated for the cell viability using cell counting kit-8 assay. (M and N) The expression of Notch target genes in MLN4924-treated JURKAT (M) and HSB2 (N) cells were determined by qPCR. (O-R) Anchorage-independent growth of MLN4924-treated JURKAT (0) and HSB2 (Q) cells was measured using soft agar colony formation assays. The number of colonies was counted and summarized (P and R). (A-R, n=3) The data are shown as the mean±SEM from the independent experiments. P values were calculated using one-way ANOVA for multiple comparisons or two-tailed Student's t-tests. *P<0.05, ** P<0.01, *** P<0.001. […]
# JURKAT xenograft = type: in vivo; conditions: 30 mg/kg subcutaneously twice daily for 21 days, BALB/c nude mice (FIG. 13S-V)
# Method: (A-H) Xenograft tumor growth studies were performed with WT or FBXO42-KO JURKAT (A-D) and HSB2 (E-H) cells. Mice were euthanized 4 weeks after tumor cell injection. The tumors were excised, photographed, and weighed. The volumes (B and F) and weights (C and G) of the tumors were measured, respectively. The mRNA levels of Notch target genes in tumors were determined by qPCR, respectively (D and H). (I-K) In vivo leukemia mouse model was established by injecting WT and FBXO42-KO JURKAT cells carrying GFP into NSG mice intravenously. The percentage of GFP^+ leukemia cells in peripheral blood was measured weekly by flow cytometry analysis (I) and summarized (K). […] (L-O) Spleens in mice from different groups were excised, a representative image is shown (L), and the spleen weight was measured (M). Tumor cell invasion was evaluated by measuring GFP intensity by fluorescence microscopy (N) and hemoxylin and eosin staining (O). […] The volumes (S) and weights (T) of the tumors and mouse weight (U) were measured. (A-O, S-V, n=5, P-R, n=10) Quantitative data are presented as mean±SEM. P values were calculated using two-tailed Student's t-tests. *P<0.05, **P<0.01, NS, not significant.
# For the evaluation of MLN4924 efficacy in vivo, 6- to 8-week-old female BALB/c nude mice were inoculated with 5×10^6 JURKAT cells subcutaneously in the right flank, and tumor growth was monitored with caliper measurements. […]
compound,measurement,setting,value
NS(=O)(=O)OC[C@@H]1C[C@@H](n2ccc3c(N[C@H]4CCc5ccccc54)ncnc32)C[C@@H]1O [MLN4924],"expression of Notch target genes HES1, HES5 and c-MYC",[1],suppressed
same,Notch target gene expression of leukemia cells,[2],diminished
same,leukemia burden in vivo (tumor growth rate),JURKAT xenograft,reduced
